Results on 21 compounds are retold here after patent US12649751B2 (Arcus Biosciences, Inc., priority 2022, dated 2026).

Molecules are shown by their SMILES. Read-outs that look alike come from different tables or passages of the source.

One assay addresses HPK1 (Homo sapiens, UniProt Q92918). Description: HPK1 Biochemical Assay (ADP-Glo luminescence; low ATP 10 μM or high ATP 200 μM). To be noted: HPK1 ADP-Glo assay.
For assay [1], the system named is p-SLP-76 (Ser376) in Jurkat cells. Nature of the assay: pSLP76 Cellular Assay (AlphaLISA SureFire Ultra p-SLP-76 (Ser376), anti-CD3 activated Jurkat cells). To be noted: Homo sapiens; pSLP76 (Ser376) AlphaLISA, anti-CD3 activated Jurkat cells; read-out: Cellular Potency. It counts as cell-based. The method in brief:
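Read-out is AlphaLISA p-SLP-76 (Ser376) signal at 570 nm in Jurkat lysates, with IC50 fitted by 4-parameter logistic. Cells were starved overnight, exposed 1 h at 37 °C to 22 twofold compound dilutions in HBSS, then activated 45 min with anti-CD3 (0.025 mg/ml stock added).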

[2] abbreviates: high ATP (200 μM ATP, 5 nM HPK1), read-out: Biochemical Potency (high ATP).
Where [3] appears, read: low ATP (10 μM ATP, 2 nM HPK1), read-out: Biochemical Potency (low ATP).

Chain of HPK1 (Q92918 whole entry, species assumed): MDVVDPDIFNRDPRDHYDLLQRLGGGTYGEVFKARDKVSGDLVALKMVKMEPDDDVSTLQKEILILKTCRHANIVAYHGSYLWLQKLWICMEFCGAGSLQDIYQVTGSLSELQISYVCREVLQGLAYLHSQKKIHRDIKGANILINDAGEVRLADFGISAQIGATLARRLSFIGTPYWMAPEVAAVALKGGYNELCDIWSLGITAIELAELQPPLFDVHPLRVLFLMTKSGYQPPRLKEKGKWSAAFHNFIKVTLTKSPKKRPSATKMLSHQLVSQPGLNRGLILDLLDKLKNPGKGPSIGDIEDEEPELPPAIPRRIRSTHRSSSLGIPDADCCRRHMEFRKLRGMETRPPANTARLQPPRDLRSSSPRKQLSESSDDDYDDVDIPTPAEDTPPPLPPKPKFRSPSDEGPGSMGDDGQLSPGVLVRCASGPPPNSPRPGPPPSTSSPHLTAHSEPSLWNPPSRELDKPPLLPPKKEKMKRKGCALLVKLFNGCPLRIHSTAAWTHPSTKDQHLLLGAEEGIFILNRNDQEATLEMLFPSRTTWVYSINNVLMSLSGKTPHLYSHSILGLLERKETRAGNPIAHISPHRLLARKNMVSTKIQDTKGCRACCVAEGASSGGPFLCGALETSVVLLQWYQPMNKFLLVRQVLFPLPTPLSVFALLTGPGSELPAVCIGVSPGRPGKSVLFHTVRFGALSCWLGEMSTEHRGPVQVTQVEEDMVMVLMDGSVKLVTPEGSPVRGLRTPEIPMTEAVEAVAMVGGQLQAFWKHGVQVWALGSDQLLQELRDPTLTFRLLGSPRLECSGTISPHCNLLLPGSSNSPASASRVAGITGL

Consider `Cc1cc(Nc2cc3nc(-c4cccc(C(=O)N(C)[C@@H](C)CO)c4)sc3cn2)nc(N2C[C@@H]3C[C@H]2CN3C)n1` [Example 561], for which the IC50 was under 100 nM on HPK1 (setting [2]) and 100 to 1000 nM in assay [1].

For the compound `Cc1cc(C(=O)N(C)C)cc(-c2nc3cc(Nc4cc(C)nc(N5C[C@@H]6C[C@H]5CN6CCO)n4)ncc3s2)c1` [Example 562], the IC50 (on HPK1 (setting [2]); in assay [1]) was under 100 nM each time.

For `Cc1cc(Nc2cc3nc(-c4cccc(C(=O)N5C[C@H]6C[C@@H]5CO6)c4)sc3cn2)nc(N2C[C@@H]3C[C@H]2CN3CCO)n1` [Example 563], the IC50 on HPK1 (setting [2]) is under 100 nM; in assay [1] it was 100 to 1000 nM.

As to `Cc1cc(Nc2cc3nc(-c4cccc(C(=O)N5C[C@@H]6C[C@H]5CO6)c4)sc3cn2)nc(N2C[C@@H]3C[C@H]2CN3CCO)n1` [Example 564], the IC50 at HPK1 (setting [2]) is under 100 nM; in assay [1], 100 to 1000 nM.

For the compound `Cc1cc(Nc2cc3nc(-c4cccc(C(=O)N5CCOCC5)c4)sc3cn2)nc(N2C[C@@H]3C[C@H]2CN3CCO)n1` [Example 565], the IC50 was under 100 nM on HPK1 (setting [2]) and 100 to 1000 nM in assay [1].

In the case of `COCCN(C)C(=O)c1cccc(-c2nc3cc(Nc4cc(C)nc(N5C[C@@H]6C[C@H]5CN6C)n4)ncc3s2)c1` [Example 566], the values for the IC50 (at HPK1 (setting [2]); in assay [1]) were under 100 nM and 100 to 1000 nM, respectively.

With `CCN1C[C@@H]2C[C@H]1CN2c1nc(C)cc(Nc2cc3nc(-c4cccc(COC5CC5)c4)sc3cn2)n1` [Example 567], the IC50 at HPK1 (setting [2]) was under 100 nM; in assay [1], 100 to 1000 nM.

With `CCN1C[C@@H]2C[C@H]1CN2c1nc(C)cc(Nc2cc3nc(-c4cccc(C(=O)N(C)C5CCN(C(C)=O)CC5)c4)sc3cn2)n1` [Example 568], the IC50 at HPK1 (setting [2]) fell in the range of 100 to 1000 nM; in assay [1] it was 1000 to 5000 nM.

For the compound `CC(=O)N1CCn2ncc(-c3nc4cc(Nc5cc(C)nc(N6C[C@@H]7C[C@H]6CN7C)n5)ncc4s3)c2C1` [Example 569], the IC50 on HPK1 (setting [2]) is under 100 nM; in assay [1], 100 to 1000 nM.

For `Cc1cc(Nc2cc3nc(-c4cnn5c4CN(S(C)(=O)=O)CC5)sc3cn2)nc(N2C[C@@H]3C[C@H]2CN3C)n1` [Example 570], the IC50 (on HPK1 (setting [2]); in assay [1]) was under 100 nM throughout.

In the case of `CC(=O)N1CCC(n2cc(-c3nc4cc(Nc5cc(C)nc(N6C[C@@H]7C[C@H]6CN7C)n5)ncc4s3)cn2)CC1` [Example 571], the IC50 on HPK1 (setting [2]) was in the range of 100 to 1000 nM; in assay [1], 1000 to 5000 nM.

As to `Cc1cc(Nc2cc3nc(-c4cnn(C5CCN(S(C)(=O)=O)CC5)c4)sc3cn2)nc(N2C[C@@H]3C[C@H]2CN3C)n1` [Example 572], the IC50 at HPK1 (setting [2]) is under 100 nM; in assay [1] it was 1000 to 5000 nM.

As to `CC(=O)N1CCCc2c(-c3nc4cc(Nc5cc(C)nc(N6C[C@@H]7C[C@H]6CN7C)n5)ncc4s3)cccc21` [Example 573], the values for the IC50 (at HPK1 (setting [2]); in assay [1]) were 100 to 1000 nM and 1000 to 5000 nM, respectively.

As to `Cc1cc(Nc2cc3nc(-c4ccc5c(c4)CN(S(C)(=O)=O)CC5)sc3cn2)nc(N2C[C@@H]3C[C@H]2CN3C)n1` [Example 574], the IC50 on HPK1 (setting [2]) is under 100 nM; in assay [1], 5000 to 25000 nM.

`Cc1cc(Nc2cc3nc(-c4cnn5c4CNCC5)sc3cn2)nc(N2C[C@@H]3C[C@H]2CN3C)n1` [Example 575]: the IC50 at HPK1 (setting [2]) is under 100 nM; in assay [1], 100 to 1000 nM.

Turning to `Cc1cccnc1-c1nc2cc(Nc3ccc4c(n3)[C@@](C)(N)CC4)ncc2s1` [Example 576], the values for the IC50 (at HPK1 (setting [3]); in assay [1]) were under 100 nM and 1000 to 5000 nM, respectively.

Take `Cc1cccnc1-c1nc2cc(Nc3ccc4c(n3)[C@](C)(N)CC4)ncc2s1` [Example 577]: the IC50 is under 100 nM at HPK1 (setting [3]) and 1000 to 5000 nM in assay [1].

In the case of `Cc1cccnc1-c1nc2cc(Nc3ccc4c(n3)[C@@H](N)CC4)ncc2s1` [Example 581], the IC50 was under 100 nM on HPK1 (setting [3]) and 100 to 1000 nM in assay [1].

In the case of `Cc1cc(Nc2cc3nc(-c4cncc(-c5ncc(F)cc5C)c4)sc3cn2)nc(N2C[C@@H]3C[C@H]2CN3C)n1` [Example 584], the IC50 at HPK1 (setting [2]) is under 100 nM; in assay [1], 100 to 1000 nM.

Consider `Cc1cc(Nc2cc3nc(-c4cccc(-c5ncccc5C(C)C)c4)sc3cn2)nc(N2C[C@@H]3C[C@H]2CN3C)n1` [Example 585], for which the figures for the IC50 (at HPK1 (setting [2]); in assay [1]) were under 100 nM and 100 to 1000 nM, respectively.

As for `Cc1cc(Nc2cc3nc(-c4cccc(-c5ncccc5C)c4)sc3cn2)nc(N2C[C@@H]3C[C@H]2CN3C)n1` [Example 586], the IC50 on HPK1 (setting [2]) is under 100 nM; in assay [1] it was 100 to 1000 nM.
